Among the data in patent publication US6437184B1, “Oxime compounds, their use, and intermediates for their production” (Sumitomo Chemical Company, Limited, priority 1997, dated 2002) are mortality values, retold here.

Molecules are shown by their SMILES.

This assay deals with Musca domestica. In words: Insecticidal test against Musca domestica. The assay is classed as in vivo. To be noted: 24 h, 500 ppm water dilution, 0.7 ml on filter paper with sucrose, female adults, after 1 day, read-out: mortality. The method, then: In the bottom of a polyethylene cup having a diameter of 5.5 cm was placed a piece of filter paper having the same size. A 200-fold water dilution (500 ppm) of a test compound formulation obtained according to Formulation Example 1 was added dropwise at a volume of 0.7 ml on the filter paper, and about 30 mg of sucrose as a diet was uniformly placed thereon. Ten female adults of houseflies (Musca domestica) were set free in the cup, and the cup was kept covered. After 1 day, the survival of the adults was determined to determine the mortality.
For `CON=CCCCOc1c(Cl)cc(OCC=C(Cl)Cl)cc1Cl` [(29), 4-(2,6-dichloro-4-(3,3-dichloro-2-propenyloxy)phenoxy)butanal O-methyloxime], the mortality (usually the percentage killed) at 500 µg/mL is at least 80%.
Regarding `COc1ccc(CON=CCCCCOc2c(Cl)cc(OCC=C(Cl)Cl)cc2Cl)cc1` [(22), 5-(2,6-dichloro-4-(3,3-dichloro-2-propenyloxy)phenoxy)pentanal O-(4-methoxybenzyl)oxime], the mortality at 500 µg/mL was at least 80%.
For the molecule `ClC(Cl)=CCOc1cc(Cl)c(OCCCCC=NOCC(Cl)(Cl)Cl)c(Cl)c1` [(170), 5-(2,6-dichloro-4-(3,3-dichloro-2-propenyloxy)phenoxy)pentanal O-(2,2,2-trichloroethyl)oxime], the mortality at 500 µg/mL was at least 80%.
The same measure for `C=CCON=CCCCCOc1c(Cl)cc(OCC=C(Cl)Cl)cc1Cl` [(19), 5-(2,6-dichloro-4-(3,3-dichloro-2-propenyloxy)phenoxy)pentanal O-(2-propenyl)oxime]: at least 80%.
Take `ClC(Cl)=CCOc1cc(Cl)c(OCCCCCON=C2CCCCC2)c(Cl)c1` [(566), cyclohexanone O-(5-(2,6-dichloro-4-(3,3-dichloro-2-propenyloxy)phenoxy)pentyl)oxime]: the mortality at 500 µg/mL was at least 80%.
Then `CC(C)CON=CCOCCCCCOc1c(Cl)cc(OCC=C(Cl)Cl)cc1Cl` [(155), 5-(2,6-dichloro-4-(3,3-dichloro-2-propenyloxy)phenoxy)pentyloxyacetaldehyde O-isobutyloxime], with at least 80%; and `CC=NOCCCCCOc1c(Cl)cc(OCC=C(Cl)Cl)cc1Cl` [(541), acetaldehyde O-(5-(2,6-dichloro-4-(3,3-dichloro-2-propenyloxy)phenoxy)pentyl)oxime], with at least 80%; and `C=CCON=Cc1cccc(COc2c(Cl)cc(OCC=C(Cl)Cl)cc2Cl)c1` [(330), 3-(2,6-dichloro-4-(3,3-dichloro-2-propenyloxy)phenoxymethyl)benzaldehyde O-allyl oxime], with at least 80%.
Turning to `CCCCOCC=NOCCCCCOc1c(Cl)cc(OCC=C(Cl)Cl)cc1Cl` [(565), n-butyloxyacetaldehyde O-(5-(2,6-dichloro-4-(3,3-dichloro-2-propenyloxy)phenoxy)pentyl)oxime], the mortality at 500 µg/mL is at least 80%.
Take `CC(C)ON=CCOCCCCCOc1c(Cl)cc(OCC=C(Cl)Cl)cc1Cl` [(153), 5-(2,6-dichloro-4-(3,3-dichloro-2-propenyloxy)phenoxy)pentyloxyacetaldehyde O-isopropyloxime]: the mortality at 500 µg/mL is at least 80%.
Then `CCCCCC=NOCCCCCCOc1c(Cl)cc(OCC=C(Cl)Cl)cc1Cl` [(551), hexanal O-(6-(2,6-dichloro-4-(3,3-dichloro-2-propenyloxy)phenoxy)hexyl)oxime], with at least 80%; and `CC(COCCCCCOc1c(Cl)cc(OCC=C(Cl)Cl)cc1Cl)=NOCc1ccccc1` [(175), 5-(2,6-dichloro-4-(3,3-dichloro-2-propenyloxy)phenoxy)pentyloxyacetone O-benzyloxime], with at least 80%.
Turning to `CCCCON=Cc1ccc(COc2c(Cl)cc(OCC=C(Cl)Cl)cc2Cl)cc1` [(376), 4-((2,6-dichloro-4-(3,3-dichloro-2-propenyloxy)phenoxy)methyl)benzaldehyde O-butyloxime], the mortality at 500 µg/mL is at least 80%.
Take `CCON=CCOCCCCOc1c(Cl)cc(OCC=C(Cl)Cl)cc1Cl` [(1), 4-(2,6-dichloro-4-(3,3-dichloro-2-propenyloxy)phenoxy)butyloxyacetaldehyde O-ethyloxime]: the mortality at 500 µg/mL was at least 80%.
For the molecule `CON=CCOCCCCCOc1c(Cl)cc(OCC=C(Cl)Cl)cc1Cl` [(158), 5-(2,6-dichloro-4-(3,3-dichloro-2-propenyloxy)phenoxy)pentyloxyacetaldehyde O-methyloxime], the mortality at 500 µg/mL was at least 80%.
As to `CCCON=CCCCCOc1c(Cl)cc(OCC=C(Cl)Cl)cc1Cl` [(18), 5-(2,6-dichloro-4-(3,3-dichloro-2-propenyloxy)phenoxy)pentanal O-n-propyloxime], the mortality at 500 µg/mL was at least 80%.
